Laboratory results published in patent US11324750B2, “Compositions and methods for the treatment of severe acute respiratory syndrome coronavirus 2 (SARS-CoV-2) infection” (Children's Hospital Medical Center, priority 2020, dated 2022).
“Also recorded” adds a separate entry of the source.

How the values were obtained:
48 cytokines in serum = experiment: Serum cytokines, Bio-Plex Pro Human Cytokines 48-Plex Screening assay; details: in vivo
[1] = system: SARS-CoV-2-specific IgM and IgG; experiment: SARS-CoV-2-specific IgM and IgG detection (CLIA); type: in vivo, human; details: vs control group
Text: SARS-CoV-2-specific IgM and IgG detection. The SARS-CoV-2-specific IgM and IgG were detected by paramagnetic particle chemiluminescent immunoassay (CLIA) using iFlash-SARS-CoV-2 IgM/IgG assay kit (SHENZHEN YHLO BIOTECH CO., LTD.) and iFlash Immunoassay Analyzer (SHENZHEN YHLO BIOTECH CO., LTD.)
Procedures. The first day of randomization was designated as D0. The second and the fourth day after randomization were designated D1 and D3, respectively. Dx referred to the day when either disease progressed according to the Chinese management guideline for COVID-19 (version 5.0) or defined as a one-category increase on the seven-category scale. Dend was the day before discharge. The enrolled patients were randomly separated into two groups: the treatment group (group B) received oral intake of ruxolitinib (Jakafi®, Novartis Pharma Stein AG, Switzerland) 5 mg twice a day plus standard-of-care (SoC); the control group (group A) is treated with placebo twice a day with SoC. […] Safety was monitored daily by two independent senior physicians from the trial center. […] The CT features of improvement were evaluated by two independent senior radiologists blindly, which should at least meet one of the following criteria: decreased presence of ground-glass opacities (GGO), decreased lung opacification, reduced density of consolidation or decreased pleural effusion with existence of fibrous stripes^29. […]

SARS-CoV-2 [2] = experiment: Virus clearance time by RT-PCR on throat swab; type: in vivo; details: median (IQR); patients with positive RT-PCR on throat swab; P 0.85 (table), P=0.65
severe COVID-19 patients = experiment: Randomized controlled trial, clinical outcomes (seven-category ordinal scale, chest CT, mortality, lymphocyte recovery, supportive treatments); type: in vivo, human; details: for CT scan follow-up within 14 days: Improvement, %: P 0.07 vs control
Text: As of the effective date of this application, no therapeutics have yet been proven effective for the treatment of severe COVID-19 with cytokine storm. Ruxolitinib, a potent and selective oral inhibitor of Janus kinase (JAK) 1 and JAK2, was proposed by Applicant to be beneficial in the treatment of cytokine storm. Applicant conducted a prospective, multicenter, single-blind, randomized controlled trial involving participants diagnosed as severe COVID-19 patients. The enrolled patients were randomly separated into two groups with a 1:1 allocation by an independent statistician in blocks of 4 for all 3 sites. Study number and treatment allocation codes were provided in sequentially numbered opaque envelops. Intervention group is treated with ongoing oral intake 5 mg of ruxolitinib (Jakafi®, Novartis Pharma Stein AG, Switzerland) twice a day based on the standard-of-care (SoC); the control group is treated with placebo plus SoC. The primary endpoint was the incidence of serious adverse events occurring up to 28 days and the time to clinical improvement. The secondary endpoint is the overall mortality at D28. This trial is registered at www.chictr.org.cn as ChiCTR-OPN-2000029580.
A prospective, single-blind, randomized controlled trial was designed. Participants diagnosed as positive for COVID-19 were enrolled for screening in three hospitals including Tongji hospital and No. 1 hospital in Wuhan and the Third Xiangya hospital in Changsha, China. The original protocol included secondary randomization in a treatment group for infusion of mesenchymal stem cells if the patient's clinical response had deteriorated within seven days after first randomization. Because no deterioration had occurred in patients of the treatment group within seven days after first randomization and secondary randomization was unnecessary, the protocol was updated correspondingly. This study was approved by the Medical ethics committee of Tongji Hospital, Tongji Medical College, Huazhong University of Science and Technology, Wuhan, China, registered at www.chictr.org.cn as ChiCTR-OPN-2000029580.
Participants. All participants were required to meet the following inclusion criteria: (1) enrolled patients met the diagnostic criterial for COVID-19. The diagnosis and the illness severity of COVID-19 were defined according to the Chinese management guideline for COVID-19 (version 5.0)^28; (2) patients were eligible if they were 18 years or older and younger than 75 years. (3) only severe cases were enrolled. Exclusion criterial included: (1) patients with other malignant tumors in the course of treatment; (2) patients with severe cardiovascular and metabolic disease in unstable status, even if treated with drugs; (3) patients with mental or severe psychiatric disorder who are unable to understand or abide the study protocols; (4) patients needing orotracheal intubation or invasive ventilation; (5) patients who cannot guarantee to complete the scheduled treatment plan and follow-up; (6) women of child-bearing age having positive pregnancy test or still lactating; (7) patients having other active infections; (8) patients having any conditions deemed to potentially affect the safety of the study protocols. Written informed consent was obtained from all patients or the patients' legal representative if the patient was too unwell to provide the consent.
Randomization and masking. The enrolled patients were then randomly allocated into two groups with a 1:1 allocation ratio by an independent statistician using permuted blocks of 4 for all 3 sites. Patient unique identification number and treatment allocation codes were provided in sequentially numbered opaque envelops. Treating physicians were aware of group allocations while the enrolled participants, staff at trial sites, CT radiologists and laboratory personnel were masked to the trial group assignment.
Procedures. The first day of randomization was designated as D0. […]

SARS-CoV-2 [3] = experiment: SARS-CoV-2 copies number in blood by one-step RT-ddPCR; type: in vivo

With N#CC[C@H](C1CCCC1)n1cc(-c2ncnc3[nH]ccc23)cn1 [Ruxolitinib, (3R)-3-cyclopentyl-3-[4-(7H-pyrrolo[2,3-d]pyrimidin-4-yl)pyrazol-1-yl]propanenitrile] the “Average fold-change of 48 cytokines” value (48 cytokines in serum) was 0.466, the “Average values of 48 cytokines” value (48 cytokines in serum) was “decreased significantly; also recorded: all average values of 48 cytokines decreased” and the “Level of MIP-1α” value (48 cytokines in serum) was “markedly decreased”. The “Level of interleukin-6 (IL-6)” value (48 cytokines in serum) was “markedly decreased”, the “Level of interleukin-12 (IL-12) (p40)” value (48 cytokines in serum) was “markedly decreased” and the “Level of macrophage inflammatory protein 1β (MIP-1β)” value (48 cytokines in serum) was “markedly decreased”. The “Level of macrophage migration inhibitory factor (MIF)” value (48 cytokines in serum) was “markedly decreased”, the “Level of nerve growth factor β (NGF-β)” value (48 cytokines in serum) was “markedly decreased” and the “Level of vascular endothelial growth factor (VEGF)” value (48 cytokines in serum) was “markedly decreased”. For the same molecule, the “Peak IgG against SARS-CoV-2” value [1] was “no significant difference”, the “Peak level of anti-IgM of SARS-CoV-2” value ([1]; P=0.039) was “profoundly higher” and the Virus clearance time (SARS-CoV-2 [2]) was 13 days. For the same molecule, the “CT scan follow-up within 14 days: Progression, %” value (severe COVID-19 patients; chest CT, N = 20) was “(5.0%)”, the “CT scan follow-up within 14 days: Stable, %” value (severe COVID-19 patients; chest CT, N = 20) was “(5.0%)” and the “CT scan follow-up within 14 days: Improvement, %” value (severe COVID-19 patients; chest CT, N = 20) was “(90.0%)”. The “CT scan follow-up within 14 days: Improvement, %” value (severe COVID-19 patients; chest CT, N = 20, listed as ruxolitinib) was 90%, the “Time from randomization to death” value (severe COVID-19 patients; median (IQR)) was 0 days and the “Time from randomization to discharge” value (severe COVID-19 patients; median (IQR), P 0.94 vs control) was 17 days. For the same molecule, the “Time to lymphocyte recovery” value (severe COVID-19 patients; median (IQR), patients with lymphopenia, log-rank P 0.03 vs control) was 5 days, the “Time to clinical improvement” value (severe COVID-19 patients; median (IQR), primary efficacy endpoint, log-rank P 0.15 vs control) was 12 days and the “Clinical improvement Day 28, %” value (severe COVID-19 patients; seven-category ordinal scale, N = 20, P 0.23 vs control) was “(100.0%)”. The “Clinical improvement Day 14, %” value (severe COVID-19 patients; seven-category ordinal scale, N = 20, P 0.35 vs control) was “(60.0%)”, the “Clinical improvement Day 7, %” value (severe COVID-19 patients; seven-category ordinal scale, N = 20, P 0.41 vs control) was “(20.0%)” and the “Clinical improvement Day 21, %” value (severe COVID-19 patients; seven-category ordinal scale, N = 20, P 1.00 vs control) was “(90.0%)”. The “Blood viral RNA loads at D1” value (SARS-CoV-2 [3]; mean (±SEM), baseline, P=0.57 vs control) was 94±26 copies per milliliter and the “Viral load at discharge” value (SARS-CoV-2 [3]; vs SoC alone, P=0.63) was “did not differ”.
